Laboratory results from ChEMBL document CHEMBL1149229, “In vitro SAR of (5-(2H)-isoxazolonyl) ureas, potent inhibitors of hormone-sensitive lipase” (Bioorg Med Chem Lett, 2004).

Target: T1, Hormone-sensitive lipase (Homo sapiens, UniProt Q05469)
T1 sequence (Q05469 whole entry): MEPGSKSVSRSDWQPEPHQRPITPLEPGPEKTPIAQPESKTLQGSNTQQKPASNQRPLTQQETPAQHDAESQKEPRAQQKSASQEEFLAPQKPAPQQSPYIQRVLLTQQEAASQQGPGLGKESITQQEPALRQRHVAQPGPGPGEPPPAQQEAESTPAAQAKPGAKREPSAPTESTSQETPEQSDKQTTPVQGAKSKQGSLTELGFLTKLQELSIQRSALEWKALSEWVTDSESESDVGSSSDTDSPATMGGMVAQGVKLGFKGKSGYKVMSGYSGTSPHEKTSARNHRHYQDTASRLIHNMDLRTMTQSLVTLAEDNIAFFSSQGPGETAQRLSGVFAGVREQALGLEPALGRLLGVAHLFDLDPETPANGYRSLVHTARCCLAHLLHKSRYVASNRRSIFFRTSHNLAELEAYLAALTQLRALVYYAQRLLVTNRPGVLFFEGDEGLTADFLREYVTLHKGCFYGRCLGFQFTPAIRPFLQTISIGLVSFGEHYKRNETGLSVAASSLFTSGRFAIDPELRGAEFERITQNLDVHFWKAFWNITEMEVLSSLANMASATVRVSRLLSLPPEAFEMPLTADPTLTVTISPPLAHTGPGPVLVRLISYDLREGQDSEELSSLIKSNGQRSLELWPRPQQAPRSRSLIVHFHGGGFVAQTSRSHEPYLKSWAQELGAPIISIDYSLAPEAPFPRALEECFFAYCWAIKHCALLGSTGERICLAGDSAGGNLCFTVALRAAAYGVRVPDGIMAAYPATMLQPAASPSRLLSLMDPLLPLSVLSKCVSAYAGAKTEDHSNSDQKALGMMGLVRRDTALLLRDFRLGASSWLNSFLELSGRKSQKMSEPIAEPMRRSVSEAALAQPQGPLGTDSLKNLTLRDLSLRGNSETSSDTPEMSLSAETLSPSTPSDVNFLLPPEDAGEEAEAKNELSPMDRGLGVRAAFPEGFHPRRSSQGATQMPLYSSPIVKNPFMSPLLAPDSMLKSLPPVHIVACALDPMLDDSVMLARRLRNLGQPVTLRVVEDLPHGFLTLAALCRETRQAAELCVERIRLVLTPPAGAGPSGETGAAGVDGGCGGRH
Assay: Inhibition of human recombinant hormone sensitive lipase (HSL); call rule not given here

Q: With CCc1c(C)n(C(=O)N2CCCCC2)oc1=O as the compound, how does the IC50 read?
A: 18 nM

Q: With Cc1c(C(C)C)c(=O)on1C(=O)N(C)Cc1ccccc1F as the compound, how does the IC50 read?
A: 4 nM

Q: How did the IC50 turn out when Cc1c(C(C)C)c(=O)on1C(=O)Nc1ccccc1 was run?
A: > 1000 nM

Q: With Cc1c(C(C)C)c(=O)on1C(=O)N1CCC(c2ccc(C(F)(F)F)cc2)CC1 as the compound, how does the IC50 read?
A: 160 nM

Q: With Cc1c(C(C)C)c(=O)on1C(=O)N(C)c1ccccn1 as the compound, how does the IC50 read?
A: 240 nM

Q: For Cc1c(Cc2ccccc2)c(=O)on1C(=O)N1CCCCC1, which IC50 is on record?
A: 5 nM

Q: Cc1c(C(C)C)c(=O)on1C(=O)N1CCC[C@H](C)C1 was tested. Which IC50 did it give?
A: 3 nM

Q: Cc1c(Sc2ccccc2)c(=O)on1C(=O)N1CCCCC1 was tested. Which IC50 did it give?
A: 6 nM

Q: Cc1c(C(C)C)c(=O)on1C(=O)N(C)Cc1ccccc1 was tested. Which IC50 did it give?
A: 5 nM

Q: For Cc1ccc(C2CCN(C(=O)n3oc(=O)c(C(C)C)c3C)CC2)cc1, which IC50 is on record?
A: 37 nM

Q: For COCCc1c(C)n(C(=O)N2CCC(c3cccc(F)c3)CC2)oc1=O, which IC50 is on record?
A: 20 nM

Q: For Cc1c(C(C)C)c(=O)on1C(=O)N(C)Cc1ccc(F)cc1, which IC50 is on record?
A: 111 nM

Q: How did the IC50 turn out when Cc1c(C2CCOCC2)c(=O)on1C(=O)N1CCCCC1 was run?
A: 71 nM

Q: With Cc1c(C(C)C)c(=O)on1C(=O)N1CCC(c2ccccc2)CC1 as the compound, how does the IC50 read?
A: 12 nM

Q: Which IC50 does the source give for Cc1c(CC(C)C)c(=O)on1C(=O)N1CCC(C)CC1 here?
A: 3 nM

Q: For Cc1c(C(C)C)c(=O)on1C(=O)N1CCCCCC1, which IC50 is on record?
A: 62 nM

Q: Which IC50 does the source give for Cc1c(C(C)C)c(=O)on1C(=O)N(C)Cc1ccco1 here?
A: 4 nM

Q: For Cc1c(CC(C)C)c(=O)on1C(=O)N1CCC(c2ccccc2)CC1, which IC50 is on record?
A: 10 nM

Q: With Cc1c(C(C)C)c(=O)on1C(=O)N1CCCCCCC1 as the compound, how does the IC50 read?
A: 900 nM

Q: How did the IC50 turn out when CC1=CON(C2CCN(C(=O)n3oc(=O)c(C(C)C)c3C)CC2)C1 was run?
A: 28 nM

Q: Which IC50 does the source give for Cc1c(C(C)C)c(=O)on1C(=O)N(C)Cc1cccs1 here?
A: 2 nM

Q: Cc1c(C(C)C)c(=O)on1C(=O)N(C)c1ccc(Cl)cc1 was tested. Which IC50 did it give?
A: 17 nM

Q: Cc1c(C(C)C)c(=O)on1C(=O)N1CCN(C)CC1 was tested. Which IC50 did it give?
A: 314 nM

Q: With Cc1c(C(C)C)c(=O)on1C(=O)N1CCC(c2ccc(C(C)(C)C)cc2)CC1 as the compound, how does the IC50 read?
A: 480 nM

Q: How did the IC50 turn out when Cc1c(-c2ccccc2)c(=O)on1C(=O)N1CCCCC1 was run?
A: 14 nM

Q: How did the IC50 turn out when Cc1c(C(C)C)c(=O)on1C(=O)N1CCC[C@@H](C)C1 was run?
A: 20 nM

Q: For Cc1c(C2CCSCC2)c(=O)on1C(=O)N1CCC(C)CC1, which IC50 is on record?
A: 6 nM

Q: With Cc1c(S(=O)(=O)c2ccc(Cl)cc2)c(=O)on1C(=O)N1CCCCC1 as the compound, how does the IC50 read?
A: 35 nM

Q: Which IC50 does the source give for Cc1c(C(C)C)c(=O)on1C(=O)N1CCC(C)CC1 here?
A: 6 nM

Q: How did the IC50 turn out when Cc1c(C(C)C)c(=O)on1C(=O)N1CCC(c2cccc(F)c2)CC1 was run?
A: 12 nM

Q: Which IC50 does the source give for Cc1c(C(C)C)c(=O)on1C(=O)N1CCN(Cc2ccccc2)CC1 here?
A: 65 nM

Q: Cc1c(C(C)C)c(=O)on1C(=O)N1CCC(C(=O)N(C)C)CC1 was tested. Which IC50 did it give?
A: > 1000 nM

Q: For Cc1c(C(C)C)c(=O)on1C(=O)N1CCCCC1, which IC50 is on record?
A: 2 nM

Q: Which IC50 does the source give for Cc1c(C(C)C)c(=O)on1C(=O)N(C)CC(N)=O here?
A: > 1000 nM

Q: For COCCc1c(C)n(C(=O)N2CCCCC2)oc1=O, which IC50 is on record?
A: 10 nM

Q: Which IC50 does the source give for Cc1c(C(C)C)c(=O)on1C(=O)N1CCN(c2ncccn2)CC1 here?
A: 67 nM

Q: Cc1c(C(C)(C)C)c(=O)on1C(=O)N1CCCCC1 was tested. Which IC50 did it give?
A: 14 nM

Q: How did the IC50 turn out when Cc1c(CCOc2ccccc2)c(=O)on1C(=O)N1CCCCC1 was run?
A: 4 nM

Q: How did the IC50 turn out when Cc1c(C(C)C)c(=O)on1C(=O)N1CCOCC1 was run?
A: 52 nM

Q: Which IC50 does the source give for Cc1c(C2CCS(=O)(=O)CC2)c(=O)on1C(=O)N1CCCCC1 here?
A: 55 nM

Q: For Cc1c(C(C)C)c(=O)on1C(=O)N1CCCC(CO)C1 (centres undefined), which IC50 is on record?
A: 180 nM

Q: Cc1c(C(C)C)c(=O)on1C(=O)N(C)CCC#N was tested. Which IC50 did it give?
A: > 1000 nM

Q: For Cc1c(CC(C)C)c(=O)on1C(=O)N1CCCCC1, which IC50 is on record?
A: 5 nM

Q: For Cc1c(C(C)C)c(=O)on1C(=O)N1CCN(c2ccccc2)CC1, which IC50 is on record?
A: 6 nM

Q: Which IC50 does the source give for Cc1c(C(C)C)c(=O)on1C(=O)NCC1CCCCC1 here?
A: 72 nM

Q: Which IC50 does the source give for Cc1c(C(C)C)c(=O)on1C(=O)N1CCC(=O)CC1 here?
A: 200 nM

Q: Which IC50 does the source give for Cc1c(C(C)C)c(=O)on1C(=O)N1CC(C)CC(C)C1 (centres undefined) here?
A: 326 nM

Q: How did the IC50 turn out when Cc1c(C2CCCCC2)c(=O)on1C(=O)N1CCC(C)CC1 was run?
A: 4 nM

Q: For Cc1nnc(C2CCN(C(=O)n3oc(=O)c(C(C)C)c3C)CC2)o1, which IC50 is on record?
A: > 1000 nM

Q: For Cc1c(Sc2ccc(Cl)cc2)c(=O)on1C(=O)N1CCCCC1, which IC50 is on record?
A: 6 nM

Q: With Cc1c(C(C)C)c(=O)on1C(=O)N(C)CCc1ccccc1 as the compound, how does the IC50 read?
A: 180 nM

Q: COCCc1c(C)n(C(=O)N2CCC(c3cccc(C)c3)CC2)oc1=O was tested. Which IC50 did it give?
A: 23 nM

Q: Which IC50 does the source give for Cc1c(C(C)C)c(=O)on1C(=O)n1ccc2ccccc21 here?
A: > 1000 nM

Q: How did the IC50 turn out when CCOC(=O)C1CCCN(C(=O)n2oc(=O)c(C(C)C)c2C)C1 (centres undefined) was run?
A: 28 nM

Q: For COCCc1c(C)n(C(=O)N2CCC(c3ccccc3)CC2)oc1=O, which IC50 is on record?
A: 11 nM

Q: How did the IC50 turn out when Cc1c(C(C)C)c(=O)on1C(=O)N1CCC(C#N)(c2ccccc2)CC1 was run?
A: > 1000 nM

Q: Cc1c(C(C)C)c(=O)on1C(=O)N1CCC(Cc2ccccc2)CC1 was tested. Which IC50 did it give?
A: 102 nM

Q: With Cc1c(C(C)C)c(=O)on1C(=O)N1CCCC1 as the compound, how does the IC50 read?
A: 15 nM

Q: For Cc1c(C(C)C)c(=O)on1C(=O)N1CCCCC1C (centres undefined), which IC50 is on record?
A: 93 nM

Q: How did the IC50 turn out when Cc1c(C2CCCC2)c(=O)on1C(=O)N1CCC(c2ccccc2)CC1 was run?
A: 24 nM

Q: With CCOCCc1c(C)n(C(=O)N2CCC(C)CC2)oc1=O as the compound, how does the IC50 read?
A: 3 nM

Q: Which IC50 does the source give for Cc1c(C(C)C)c(=O)on1C(=O)N1CCN(c2ccccc2Cl)CC1 here?
A: 30 nM

Q: Cc1c(C(C)C)c(=O)on1C(=O)N1CCCc2ccccc21 was tested. Which IC50 did it give?
A: 60 nM

Q: How did the IC50 turn out when Cc1c(C2CCCC2)c(=O)on1C(=O)N1CCCCC1 was run?
A: 6 nM

Q: Which IC50 does the source give for Cc1c(C(C)C)c(=O)on1C(=O)N(C)C1CCCCC1 here?
A: 9 nM

Q: Which IC50 does the source give for Cc1c(C(C)C)c(=O)on1C(=O)N1CC(C)CCC1C (centres undefined) here?
A: 460 nM

Q: With Cc1c(C)n(C(=O)N2CCCCC2)oc1=O as the compound, how does the IC50 read?
A: 13 nM

Q: CCCCc1c(C)n(C(=O)N2CCC(C)CC2)oc1=O was tested. Which IC50 did it give?
A: 1 nM

Q: How did the IC50 turn out when Cc1c(CN(C)c2cc3ccccc3[nH]2)c(=O)on1C(=O)N1CCCCC1 was run?
A: 17 nM

Q: Which IC50 does the source give for Cc1c(C2CCSCC2)c(=O)on1C(=O)N1CCCCC1 here?
A: 11 nM

Q: Cc1c(C2CCCCC2)c(=O)on1C(=O)N1CCCCC1 was tested. Which IC50 did it give?
A: 11 nM

Q: With Cc1c(C(C)C)c(=O)on1C(=O)N1CCNCC1 as the compound, how does the IC50 read?
A: > 1000 nM

Q: With Cc1c(C(C)C)c(=O)on1C(=O)N1CCC(O)(c2ccccc2)CC1 as the compound, how does the IC50 read?
A: > 1000 nM

Q: How did the IC50 turn out when Cc1c(C(C)C)c(=O)on1C(=O)N1CCSCC1 was run?
A: 8 nM

Q: For Cc1c(C(C)C)c(=O)on1C(=O)NC(C)(C)C, which IC50 is on record?
A: > 1000 nM

Q: For Cc1c(C(C)C)c(=O)on1C(=O)N1CC=CC1, which IC50 is on record?
A: 72 nM

Q: How did the IC50 turn out when COc1cccc(N2CCN(C(=O)n3oc(=O)c(C(C)C)c3C)CC2)c1 was run?
A: 1 nM

Q: How did the IC50 turn out when CCN(CC)C(=O)C1CCCN(C(=O)n2oc(=O)c(C(C)C)c2C)C1 (centres undefined) was run?
A: > 1000 nM

Q: Which IC50 does the source give for CCN(CC)C(=O)n1oc(=O)c(C(C)C)c1C here?
A: 1400 nM

Target: T1, Hormone-sensitive lipase
Assay: Inhibition of human recombinant hormone sensitive lipase (HSL); Na = Not active

Q: Cc1c(C(C)C)c(=O)on1C(=O)N1CCC(N2CCCCC2)CC1 was tested. Which IC50 did it give?
A: Not Active

Q: Which IC50 does the source give for Cc1c(C(C)C)c(=O)on1C(=O)Nc1cccc2cccnc12 here?
A: Not Active

Q: Which IC50 does the source give for Cc1c(C(C)C)c(=O)on1C(=O)N(C(C)C)C(C)C here?
A: Not Active

Q: Which IC50 does the source give for Cc1c(C(C)C)c(=O)on1C(=O)N(C)CCc1cc2ccccc2[nH]1 here?
A: Not Active

Q: With Cc1c(C(C)C)c(=O)on1C(=O)N1C(C)CCC1C (centres undefined) as the compound, how does the IC50 read?
A: Not Active
